Laboratory results from patent US20170152258A9, “Substituted Pyridopyrazines as Syk Inhibitors” (HUTCHISON MEDIPHARMA LIMITED, priority 2012, published 2017).

biological target: Syk kinase (Homo sapiens, UniProt P43405); assay: SYK Enzymatic Assay (Z-LYTE Tyr 2 peptide); assay type: biochemical; settings: 8 concentrations 1 μM down to 0.0003 μM
Experimental: Syk kinase assay are performed in vitro using Kit-Tyr 2 Peptide (Invitrogen, Cat. No. PV3191) and in a 384-well assay plate. […] The 384-well assay plate (Corning, Cat. No. 3575) is mixed and incubated at room temperature for 1 hour. 10 μL of the Development Solution (prepared by diluting Development Reagent A (Cat. No. PV3297) to 1/32 with Development Buffer (Cat. No. PV3127)) is then added to each well, mixed and incubated at room temperature for another 1 hour. The reactions are then stopped by adding 10 μL of the Stop Reagent (Invitrogen, Cat. No. PV3094), and the plate is read with Wallac 1420 VICTOR^3 Multilabel Counter (PerkinElmer™) at 445 nm and 520 nm fluorescence. All compounds are tested at 8 concentrations (1 μM down to 0.0003 μM) using a 1:3 serial dilution scheme.

Row | SMILES | IC50
1 | CS(=O)(=O)N1CCN(c2ccc(-c3cc4nccnc4c(O[C@@H]4CCCOC4)n3)cc2)CC1 [Compound 179] | 190 nM
2 | CN(C)c1ccc(-c2cc3nccnc3c(OC3CCOCC3)n2)cc1 [Compound 107] | 919 nM
3 | CN(C)c1ccc(-c2cc3nccnc3c(OCC3CCCO3)n2)cc1 (stereo not drawn) [Compound 168] | 211 nM
4 | CN(C)c1ccc(-c2cc3nccnc3c(OC[C@@H]3CN(C(=O)CCn4ccnc4)CCO3)n2)cc1 [Compound 85] | 283 nM
5 | CS(=O)(=O)N1CCO[C@H](COc2nc(-c3ccc(N4CCCC4)cc3)cc3nccnc23)C1 [Compound 37] | 40 nM
6 | CS(=O)(=O)N1CCC(c2ccc(-c3cc4nccnc4c(OCC4CCCCO4)n3)cc2)CC1 (stereo not drawn) [Compound 169] | 272 nM
7 | CC(=O)N1CCO[C@H](COc2nc(-c3ccc4c(c3)CC(=O)N4C)cc3nccnc23)C1 [Compound 171] | 458 nM
8 | CC(=O)N1CCC(c2ccc(-c3cc4nccnc4c(O[C@@H]4CCCOC4)n3)cc2)CC1 [Compound 191] | 115 nM
9 | CN(C)c1ccc(-c2cc3nccnc3c(OC[C@@H]3CN(S(=O)(=O)C4CCCCC4)CCO3)n2)cc1 [Compound 91] | 474 nM
10 | CC(C)(N)c1ccc(-c2cc3nccnc3c(OC[C@@H]3CN(S(C)(=O)=O)CCO3)n2)cc1 [Compound 244] | 136 nM
11 | CS(=O)(=O)N1CCC(c2ccc(-c3cc4nccnc4c(OCC4OCCNC4=O)n3)cc2)CC1 (stereo not drawn) [Compound 320] | 119 nM
12 | CS(=O)(=O)N1CCC(c2ccc(-c3cc4nccnc4c(O[C@@H]4CCCOC4)n3)cc2)CC1 [Compound 180] | 177 nM
13 | c1cnc2c(OCCc3cn[nH]c3)nc(-c3ccc(N4CCOCC4)cc3)cc2n1 [Compound 2, 4-(4-(5-(2-(1H-pyrazol-4-yl)ethoxy)pyrido[3,4-b]pyrazin-7-yl)phenyl)morpholine] | 552 nM
14 | CC(Oc1nc(-c2ccc(N(C)C)cc2)cc2nccnc12)C1CN(S(C)(=O)=O)CCO1 (stereo not drawn) [Compound 240] | 262 nM
15 | CN(C)c1ccc(-c2cc3nccnc3c(OC[C@@H]3CN(S(=O)(=O)Cc4cccc(F)c4)CCO3)n2)cc1 [Compound 93] | 808 nM
16 | CS(=O)(=O)N1CCO[C@H](COc2nc(-c3ccc(C4CCNCC4)cc3)cc3nccnc23)C1 [Compound 10, (S)-4-(methylsulfonyl)-2-(((7-(4-(piperidin-4-yl)phenyl)pyrido[3,4-b]pyrazin-5-yl)oxy)methyl)morpholine] | 18 nM
17 | CN(C)CCOc1cccc(-c2cc3nccnc3c(OC[C@@H]3CN(S(C)(=O)=O)CCO3)n2)c1 [Compound 130] | 454 nM
18 | Clc1cc(-c2cc3nccnc3c(O[C@@H]3CCOC3)n2)ccc1N1CCOCC1 [Compound 194] | 136 nM
19 | C=C(C)c1ccc(-c2cc3nccnc3c(OC[C@@H]3CN(S(C)(=O)=O)CCO3)n2)cc1 [Compound 277, (S)-4-(methylsulfonyl)-2-(((7-(4-(prop-1-en-2-yl)phenyl)pyrido[3,4-b]pyrazin-5-yl)oxy)methyl)morpholine] | 192 nM

Continued, values first:

Row | IC50 | SMILES
20 | 113 nM | COC(C)c1ccc(-c2cc3nccnc3c(OC[C@@H]3CN(C(C)=O)CCO3)n2)cc1 (stereo partly drawn) [Compound 280]
21 | 115 nM | CC(=O)N1CCO[C@H](COc2nc(-c3ccc(C4(C#N)CCC4)cc3)cc3nccnc23)C1 [Compound 289]
22 | 741 nM | CC(=O)N1CCO[C@H](COc2nc(-c3ccc(C(C)N(C)C)cc3)cc3nccnc23)C1 (stereo partly drawn) [Compound 271]
23 | 122 nM | CNc1ccc(-c2cc3nccnc3c(OC[C@@H]3CN(C(C)=O)CCO3)n2)cc1 [Compound 47]
24 | 122 nM | COCCNc1ccc(-c2cc3nccnc3c(OC[C@@H]3CN(C(C)=O)CCO3)n2)cc1 [Compound 114]
25 | 449 nM | CC(=O)N1CCO[C@H](COc2nc(-c3ccc(C(C)(C)N)cc3)cc3nccnc23)C1 [Compound 245]
26 | 112 nM | CC(=O)N1CCO[C@H](COc2nc(-c3ccc(C4(C#N)CC4)cc3)cc3nccnc23)C1 [Compound 276]
27 | 134 nM | CN(C)c1ccc(-c2cc3nccnc3c(OC[C@@H]3CN(C(=O)C4CC4(F)F)CCO3)n2)cc1 (stereo partly drawn) [Compound 96]
